From US20020115703A1, “Prevention of development of dyskinesias” (priority 2000, published 2002)

Test system: locomotor hyperactivity induced by repeated administration of D-amphetamine
Assay: Locomotor (ambulatory) activity after repeated D-amphetamine administration (behavioral sensitization), photobeam activity system
Type: in vivo, mice
Description: The effects of atipamezole on the locomotor hyperactivity induced by repeated administration of D-amphetamine were studied in male mice.
Experiments were performed with C57BL/ 6J strain male mice from Jackson Laboratories. Mice were transferred to the laboratory at least 2 weeks prior to use. The mice were from 8 to 20 weeks of age at the beginning of an experiment. Groups of 10 mice were housed in standard polypropylene cages (38×22×15 cm) with free access to standard certified pelleted food (RM1 Maintenance Expanded SQC; Special Diet Services, Essex, UK) and water. Ambient temperature was 22±1 C.°, and a 12:12 h light dark cycle was maintained with lights on at 6 A.M. All experiments were carried out between 7 A.M. 1 and 5 P.M. The animal care was performed in accordance with International Council for Laboratory Animal Science (ICLAS) guidelines.
D-Amphetamine sulphate (Sigma, St. Louis, Mo., U.S.A.) and atipamezole HCl (Orion Corporation, Orion Pharma, Turku, Finland) were dissolved in saline (0.9% NaCl) and administered subcutaneously (s.c.) in a 5 ml kg volume.
The locomotor activity of the mice was measured in transparent standard polypropylene animal cages (38×22×15 cm) with transparent covers and aspen bedding on the floors. Test cages were placed in the middle of the photobeam frame system (Photobeam Activity System PAS, Cage Rack, San Diego Instruments, San Diego, Calif.). A computer control unit registered the interruptions of photobeams from 16 individual cages. Three different types of movements were monitored: 1) ambulations (large horizontal movements), 2) fine movements (smaller horizontal movements), and 3) rearings (vertical movements). Locomotor activity was measured at 5-min intervals for 2 h immediately after D-amphetamine or saline administrations.
D-amphetamine was administered subcutaneously (s.c.) at a dose of 2 mg/kg. Atipamezole was administered s.c. at a dose of 1 mg/kg 20 min before locomotor activity measurement.
In the chronic treatment group, mice were administered the dose during eight days to elicit provoked locomotor hyperactivity to D-amphetamine and the effect of the atipamezole to the locomotor activity. Mice groups in the chronic treatment schedule were saline, saline-amphetamine, amphetamine, atipamezole and atipamezole-amphetamine. A day before experiment, mice were habituated to the test environment. Test groups with different drug treatments were administrated during four consecutive days. At days five and six, there were no drug administrations nor motor activity testing. At days seven and eight, the produced locomotor hyperactivity and effect of a single exposure of D-amphetamine (saline-amphetamine-group) were analysed. (Table 1).
At day nine, the effect of different atipamezole and amphetamine administrations to the locomotor activity on the chronic treatment groups were analysed. Treatments included saline, 1 mg/kg atipamezole, 2 mg/kg D-amphetamine, 0,3 mg/kg atipamezole- 2 mg/kg D-amphetamine and 1 mg/kg atipamezole- 2 mg/kg D-amphetamine. Chronic treatment groups were saline-, atipamezole-, amphetamine- and atipamezole-amphetamine groups. Chronic groups were treated following the schedule in Table 2.
All data are presented as mean ±SEM. Statistical analysis were performed using SPSS 9.0 for Windows (SPSS, Chicago, Ill.). Separate repeated measure analyses of variance (ANOVA) were performed on each variable for each experiment grouped on time and treatment group. Results were analysed separately, because data were collected in separate experiments with different study design. When significance (P<0.05) between treatment groups was found, comparisons at each time point (date or min) were analysed by using LSD post-hoc test.

Row | SMILES | D-amphetamine induced locomotion at Day 9, chronic atipamezole-amphetamine group (atipamezole 1 mg/kg 20 min before D-amphetamine 2 mg/kg days 1-9, vs amphetamine-amphetamine group (P<0.001), FIG. 2) | D-amphetamine-induced locomotion, chronic atipamezole pre-treatment (atipamezole 1 mg/kg s.c. 20 min before D-amphetamine 2 mg/kg s.c. over days 1-8, vs amphetamine-amphetamine group, Day 2 P<0.05, Days 3-8 P<0.001, FIG. 1) | locomotor activity, atipamezole pre-treatment before saline challenge (atipamezole 1 mg/kg s.c. daily for six days, atipamezole-saline vs saline group at Day 8 (P=0.43), FIG. 1) | D-amphetamine-induced locomotor hyperactivity at Day 9 (expression of sensitization) (chronic amphetamine group, atipamezole 0.3 mg/kg 20 min before D-amphetamine 2 mg/kg at Day 9 (P=0.005), FIG. 2) | D-amphetamine-induced locomotor hyperactivity at Day 9 (expression of sensitization) (chronic amphetamine group, atipamezole 1 mg/kg 20 min before D-amphetamine 2 mg/kg at Day 9 (P<0.001), FIG. 2) | locomotor activity at Day 9 after chronic atipamezole (chronic atipamezole group (1 mg/kg days 1-8), before saline and D-amphetamine challenge at Day 9, FIG. 2) | development of sensitisation: locomotion at Day 9 with D-amphetamine only (chronic atipamezole-amphetamine group given only D-amphetamine 2 mg/kg at Day 9, vs amphetamine-amphetamine group (P=0.026), FIG. 2) | locomotor activity at Day 9, atipamezole before acute D-amphetamine (chronic saline group, atipamezole 0.3 mg/kg 20 min before D-amphetamine 2 mg/kg, compared to D-amphetamine alone (P=0.016), FIG. 2) | locomotor activity at Day 9, atipamezole before acute D-amphetamine (chronic saline group, atipamezole 1 mg/kg 20 min before D-amphetamine 2 mg/kg, compared to D-amphetamine alone (P=0.364), FIG. 2) | total ambulatory activity counts at Day 9, atipamezole alone (chronic saline group, atipamezole 1 mg/kg 20 min before saline at Day 9 (P=0.81), FIG. 2) | development and expression of sensitization (motor overactivity), overall finding (given chronically in combination with D-amphetamine, in mice) | ambulatory activity (2-h overall counts) during repeated administration (D-amphetamine 2 mg/kg s.c., six repeated administrations over days 1-8, compared to saline group, C57BL/6J male mice, FIG. 1) | ambulatory sensitization at Day 9 (chronic amphetamine group, repeated D-amphetamine 2 mg/kg (P<0.001), FIG. 2) | locomotor activity at Day 9, single D-amphetamine challenge (chronic saline group, D-amphetamine 2 mg/kg at Day 9 (P<0.001 vs saline), FIG. 2)
1 | CCC1(c2cnc[nH]2)Cc2ccccc2C1 [atipamezole, 4-(2-ethyl-2,3-dihydro-1H-inden-2-y1)-1H-imidazole] | decreased significantly D-amphetamine induced locomotion | decreased significantly D-amphetamine-induced locomotion | not a statistically significant difference | clearly attenuated the D-amphetamine-induced locomotor hyperactivity | clearly attenuated the D-amphetamine-induced locomotor hyperactivity | the elevation was not statistically significant | true reduction in the development of sensitisation | amplified locomotor activity | had no effect | did not alter total ambulatory activity counts | reduces the development and expression of sensitization |  |  | 
2 | C[C@H](N)Cc1ccccc1 [D-amphetamine] |  |  |  |  |  |  |  |  |  |  |  | progressive enhance in ambulatory activity | developed strong ambulatory sensitization | significantly enhanced locomotor activity
